Experimental data published in patent publication US9192791B2, “Topical composition containing theanine derivatives for use on skin” (AMOREPACIFIC CORPORATION, priority 2011, dated 2015).

Test system: Human neonatal epidermal keratinocytes (HEK)
Assay: Evaluation of calcium influx in human neonatal epidermal keratinocytes (fluo 3-AM, confocal microscope)
Assay type: cell-based
Conditions: theanine 2.5 mM, theanine derivative 0.5 mM, 5 minutes, then fluo 3-AM 15 minutes, FIG. 4
Experimental: Stabilized human neonatal epidermal keratinocytes (HEK, Lonza, NHEK-Neo-Neonatal Normal Human Epidermal Keratinocytes, Pooled) are dispensed in a confocal dish at a density of 2×10^4 cells per well and treated with theanine (2.5 mM) and the theanine derivative (0.5 mM) for 5 minutes and then with […] fluo 3-AM for 15 minutes. The fluo 3 decomposed in the cells and combined with calcium is observed with a confocal microscope (Nikon, Japan) to measure the difference of fluorescence and evaluate the migration of calcium in the cells.

In the case of CCNC(=O)CC[C@H](N)C(=O)O [theanine], the “migration of calcium in the cells” value is reported as “definitely different behaviors from each other”.
